Experimental data published in patent US10766873B2, “Zuclopenthixol hydrochloride derivatives and Ebselen derivatives as ErbB2 inhibitors” (Centre National de la Recherche Scientifique (CNRS), priority 2016, dated 2020).

Key:
[1] = biological target: T1, WT ErbB2 (Homo sapiens, UniProt P04626); assay: Western blot pY1248, WT ErbB2 in transfected HBMECs; type: cell-based; details: 0, 5, 10 or 20 μM, 48 h
T1 construct: expressed in transfected cells; host or cells: HBMEC
Description: HBMECs cells were transfected with plasmids encoding WT, ΔEBM (a form of ErbB2 carrying mutations in the juxtamembrane domain and unable to bind to the Ezrin FERM domain), V659E or p95 ErbB2 and treated with 0, 5, 10 or 20 μM ZU for 24 h. ErbB2 activation was then analyzed by western blot analysis using a phospho-ErbB2-specific antibody (pY1248) and a tubulin antibody as a loading control. Histograms show optical density quantification.
HBMECs cells were transfected with plasmids encoding WT, V777L or V842I and treated with 0, 5, 10 or 20 μM ZU or EB1 for 48 h. ErbB2 activation was then analyzed by western blot analysis using a phospho-ErbB2-specific antibody (pY1248) and a total ErbB2 antibody. Histograms show optical density quantification.

[2] = tested on: BT474; assay: Soft agar colony formation, BT474; type: cell-based, human; details: 5 or 10 μM, 6 weeks
Description: A bottom layer of 0.8% agarose in DMEM supplemented with 20% SVF and penicillin/streptomycin was added to 24 well plates before seeding 25.10^3 SKBR3 or BT474 cells/well in a 0.6% agarose top layer. Cells were left untreated or treated with 5 or 10 μM ZU or EB1 or 5 μM AG1478 (a non-specific ErbB2 kinase inhibitor) as a positive control. Treatments were renewed 3 times a week. After 6 weeks, the number of colonies and their size were quantified using image J software. The colony formation is illustrated for each condition. Data are presented as mean±SEM.

[3] = biological target: peptide encoding the juxtamembrane region of ERBB2 (Homo sapiens, UniProt P04626); assay: Surface Plasmon Resonance, Biacore T200; type: binding
Excerpt: We analyzed the ability of ZU to directly bind to the juxtamembrane domain of ErbB2 using Surface Plasmon Resonance assays on a Biacore T200. For that, we compared the affinity of the compounds for a peptide containing the Ezrin binding motif […] of ErbB2 immobilized on sensorchips, which was reflected by the amplitude of the SPR response.
Compound ZU and EB1 were validated for their interaction with peptide encoding the juxtamembrane region of ERBB2 using a Biacore T200 (IECB, Bordeaux). Biotinylated peptide encoding the juxtamembrane region of ERBB2 (biotin-[…]) has been immobilized on Streptavidin-coated sensor chips (Series S sensor chip SA, GE Healthcare). Compound ZU in PBS, 0.02% tween20 buffer was used as analyte, and the Ezrin FERM domain has been used as a positive control.

[4] = biological target: ErbB2 (Homo sapiens, UniProt P04626); assay: ErbB2 phosphorylation in SKBR3 cells, dot blot (4G10); type: cell-based; set-up: endogenous in cells; host or cells: SKBR3; details: SKBR3, 24 h
Description: The ability of ZU and EB1 and their derivatives to inhibit ErbB2 activity in cellulo on a commonly used ErbB2-overexpressing breast cancer cell line SKBR3 was analyzed. SKBR3 were treated 24 h with increasing concentrations of the compounds (0.625-80 μM) and ErbB2 phosphorylation was addressed by dot blot analysis using an anti-phosphotyrosine antibody (clone 4G10). Quantifications show the result of two independent experiments.

Chain of ErbB2 (P04626 23-1255): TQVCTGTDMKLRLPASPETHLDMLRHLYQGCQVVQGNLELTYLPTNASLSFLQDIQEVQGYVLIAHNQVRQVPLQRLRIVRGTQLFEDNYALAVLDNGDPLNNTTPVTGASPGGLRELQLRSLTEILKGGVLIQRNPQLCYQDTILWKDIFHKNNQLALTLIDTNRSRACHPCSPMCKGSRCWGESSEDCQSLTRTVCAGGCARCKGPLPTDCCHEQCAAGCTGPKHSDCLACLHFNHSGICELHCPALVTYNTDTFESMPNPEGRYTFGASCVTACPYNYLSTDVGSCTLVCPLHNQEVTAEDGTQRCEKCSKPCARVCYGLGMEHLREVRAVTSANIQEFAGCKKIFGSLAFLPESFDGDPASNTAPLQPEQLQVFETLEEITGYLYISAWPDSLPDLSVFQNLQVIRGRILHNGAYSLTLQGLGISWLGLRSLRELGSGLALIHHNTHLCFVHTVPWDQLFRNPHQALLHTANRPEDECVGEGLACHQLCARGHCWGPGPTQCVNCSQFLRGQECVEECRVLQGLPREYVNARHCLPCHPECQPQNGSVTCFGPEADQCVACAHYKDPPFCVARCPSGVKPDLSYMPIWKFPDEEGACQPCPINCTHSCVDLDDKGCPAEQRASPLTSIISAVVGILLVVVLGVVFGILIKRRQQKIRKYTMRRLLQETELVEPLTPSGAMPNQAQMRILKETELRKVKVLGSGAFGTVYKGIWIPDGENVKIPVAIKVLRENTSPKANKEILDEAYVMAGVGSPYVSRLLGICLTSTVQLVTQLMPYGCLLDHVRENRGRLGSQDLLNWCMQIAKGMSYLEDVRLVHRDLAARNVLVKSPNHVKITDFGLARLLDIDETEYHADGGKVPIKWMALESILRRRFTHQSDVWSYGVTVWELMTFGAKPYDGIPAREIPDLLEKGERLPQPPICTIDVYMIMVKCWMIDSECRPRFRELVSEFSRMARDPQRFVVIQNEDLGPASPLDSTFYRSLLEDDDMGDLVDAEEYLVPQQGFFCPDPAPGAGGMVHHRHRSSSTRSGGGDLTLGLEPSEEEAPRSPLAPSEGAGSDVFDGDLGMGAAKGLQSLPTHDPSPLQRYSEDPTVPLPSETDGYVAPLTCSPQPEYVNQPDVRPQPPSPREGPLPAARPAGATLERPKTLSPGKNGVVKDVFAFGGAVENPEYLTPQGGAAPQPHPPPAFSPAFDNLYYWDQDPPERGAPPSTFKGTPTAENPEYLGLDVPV
T1 sequence (P04626 23-1255): as above

## O=C1c2ccccc2[Se](=O)N1c1ccccc1 (stereo not shown) [EB1, Ebselen oxide]
[1]
  ErbB2 WT activation (in words): potently decrease
[2]
  anchorage-independent growth of BT474 (in words): inhibited the anchorage-independent growth
[3]
  binding to immobilized ErbB2 juxtamembrane peptide (SPR, in words): bound to the immobilized peptide
[4]; SK-BR-3, 0.625-80 μM, read-out: ErbB2 activation 24 h Max inhibition, %
  Emax: 66.9%
[4]
  maximum inhibition of ErbB2 phosphorylation: 70%
[4]; read-out: ErbB2 activation 24 h EC50
  EC50: 23.4 µM
[4]; read-out: IC50 ErbB2 phosphorylation
  IC50: 20 µM
